The values that follow come from patent US12653815B2, “Luminally-acting N-(piperidin-4-yl)benzamide derivatives” (Takeda Pharmaceutical Company Limited, priority 2020, dated 2026).

The target in the assay is T1, human 5-HT4(b) receptor (Homo sapiens, UniProt Q13639).
T1 construct: overexpressing the full-length human 5-HT4(b) receptor with an N-terminal FLAG tag; FLAG (N); host or cells: CHO-K1
T1 sequence (Q13639 whole entry): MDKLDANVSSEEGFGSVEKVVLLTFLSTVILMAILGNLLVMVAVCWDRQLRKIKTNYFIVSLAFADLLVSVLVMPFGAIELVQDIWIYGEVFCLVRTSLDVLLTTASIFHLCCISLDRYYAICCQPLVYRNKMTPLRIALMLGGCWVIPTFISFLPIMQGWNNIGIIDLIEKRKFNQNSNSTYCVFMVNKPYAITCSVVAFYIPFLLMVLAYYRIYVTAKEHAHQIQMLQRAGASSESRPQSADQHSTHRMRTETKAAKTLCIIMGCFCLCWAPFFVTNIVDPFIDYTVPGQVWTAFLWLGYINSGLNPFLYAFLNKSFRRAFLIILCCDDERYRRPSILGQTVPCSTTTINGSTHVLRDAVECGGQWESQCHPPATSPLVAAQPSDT
As to the kind of experiment: 5-HT4(b) agonist assay (cAMP accumulation). The class given is cell-based. The conditions noted are these: CHO-K1 cells overexpressing full-length human 5-HT4(b) receptor; cAMP accumulation after 30 minutes at room temperature; 1 μM 5-HT as 100% activity. As to the method: One may determine the activity of the compounds of Formula 1 using a variety of methods, including in vitro and in vivo methods. The ability of the example compounds to activate the 5-HT4(b) receptor may be determined using the following assay.
Chinese hamster ovary (CHO-K1) cells overexpressing the full-length human 5-HT4(b) receptor with an N-terminal FLAG tag (Multispan Inc, Hayward, CA) are cultured per the manufacturer's protocol in 1:1 DMEM/F12 (Thermo Fisher, Waltham, MA) with 10% fetal bovine serum (GE Healthcare, Pittsburgh, PA) and 10 μg/mL puromycin (Thermo Fisher, Waltham, MA), and stored in frozen aliquots to be used as assay ready cells. On the day of the assay, cells are removed from frozen storage, washed two times in 1× Kreb's Ringer Buffer (Zenbio, Research Triangle Park, NC), and re-suspended to a concentration of 4×10^6 cells/mL in 1× Kreb's Ringer Buffer. Test compound (50 nL) in 100% DMSO is acoustically dispensed in low volume, white, 384-well polypropylene plates (Corning, Tewksbury, MA), followed by the addition of 4×10^4 cells per well in a total volume of 10 μL. Cells are incubated with test compound for 30 minutes at room temperature in the dark, and cAMP accumulation is measured using the Cisbio HiRange cAMP assay kit (Bedford, MA) per the manufacturer's protocol. Anti-cAMP antibody and d2-cAMP tracer reagents diluted in lysis/detection buffer are incubated in the dark for 1 hour, and results are measured on a Pherastar plate reader (BMG Labtech, Ortenberg, Germany). Data are normalized using 1 μM 5-HT (Sigma Aldrich, St. Louis, MO) as 100% activity, and DMSO alone as 0% activity.
The ability of the example compounds to activate the 5-HT4(b) receptor was evaluated using the assay described in the Biological Activity section. Table 1, below, lists EC50 from the 5-HT4(b) agonist assay for each of the example compounds, where smaller EC50 values represent higher potency.
On the technique in general: cAMP levels reflect the balance of adenylyl cyclase and phosphodiesterase activity.
For `COc1cc(N)c(Cl)cc1C(=O)N[C@@H]1CCN(CCC(C)CCC(=O)NCCCCCCCC(=O)NC[C@H](O)[C@@H](O)[C@H](O)[C@H](O)CO)C[C@@H]1OC` (stereo partly drawn) [Example 20, 4-amino-5-chloro-2-methoxy-N-((3S,4R)-3-methoxy-1-(3-methyl-6-oxo-6-((8-oxo-8-(((2S,3R,4R,5R)-2,3,4,5,6-pentahydroxyhexyl)amino)octyl)amino)hexyl)piperidin-4-yl)benzamide], the EC50 worked out at 57.6 nM.
In turn, `COc1cc(N)c(Cl)cc1C(=O)N[C@@H]1CCN(CCOCCC(=O)NCCCCCCCC(=O)NC[C@H](O)[C@@H](O)[C@H](O)[C@H](O)CO)C[C@@H]1OC` [Example 17, 4-amino-5-chloro-2-methoxy-N-((3S,4R)-3-methoxy-1-(2-(3-oxo ((8-oxo-8-(((2S,3R,4R,5R)-2,3,4,5,6-pentahydroxyhexyl)amino)octyl)amino)propoxy)ethyl)piperidin-4-yl)benzamide] had an EC50 of 202 nM.
With `CO[C@H]1CN(CC2CCN(C(=O)CCCCCC(=O)NC[C@H](O)[C@@H](O)[C@H](O)[C@H](O)CO)CC2)CC[C@H]1NC(=O)c1cc(Cl)c(N)c2c1OCC2` [Example 42, 4-amino-5-chloro-N-((3S,4R)-3-methoxy-1-((1-(7-oxo-7-(((2S,3R,4R,5R)-2,3,4,5,6-pentahydroxyhexyl)amino)heptanoyl)piperidin-4-yl)methyl)piperidin-4-yl)-2,3-dihydrobenzofuran-7-carboxamide] the figure was 1.4 nM.
With `COc1cc(N)c(Cl)cc1C(=O)N[C@@H]1CCN(CCCCCC(=O)NCCCCCCCC(=O)N[C@H]2C[C@](O)(CO)[C@@H](O)[C@H](O)[C@H]2O)C[C@@H]1OC` [Example 24, 4-amino-5-chloro-2-methoxy-N-((3S,4R)-3-methoxy-1-(6-oxo ((8-oxo-8-(((1S,2S,3R,4S,5S)-2,3,4,5-tetrahydroxy (hydroxymethyl)cyclohexyl)amino)octyl)amino)hexyl)piperidin-4-yl)benzamide] the figure was 28.7 nM.
The compound `Nc1c(Cl)cc(C(=O)NC2CCN(CCCCCC(=O)NCCCCCCCC(=O)NC[C@H](O)[C@@H](O)[C@H](O)[C@H](O)CO)CC2)c2c1CCO2` [Example 32, 4-amino-5-chloro-N-(1-(6-oxo-6-((8-oxo-8-(((2S,3R,4R,5R)-2,3,4,5,6-pentahydroxyhexyl)amino)octyl)amino)hexyl)piperidin-4-yl)-2,3-dihydrobenzofuran-7-carboxamide] gave an EC50 of 23 nM.
Take `COc1cc(N)c(Cl)cc1C(=O)N[C@@H]1CCN(CCCCCC(=O)NCC(=O)NC[C@H](O)[C@@H](O)[C@H](O)[C@H](O)CO)C[C@@H]1OC` [Example 5, 4-amino-5-chloro-2-methoxy-N-((3S,4R)-3-methoxy-1-(6-oxo-6-((2-oxo-2-(((2S,3R,4R,5R)-2,3,4,5,6-pentahydroxyhexyl)amino)ethyl)amino)hexyl)piperidin-4-yl)benzamide]: the EC50 was determined as 13.2 nM.
In turn, `CO[C@H]1CN(CC2CCN(C(=O)CCCC(=O)NC[C@H](O)[C@@H](O)[C@H](O)[C@H](O)CO)CC2)CC[C@H]1NC(=O)c1cc(Cl)c(N)c2c1OCC2` [Example 43, 4-amino-5-chloro-N-((3S,4R)-3-methoxy-1-((1-(5-oxo-5-(((2S,3R,4R,5R)-2,3,4,5,6-pentahydroxyhexyl)amino)pentanoyl)piperidin-4-yl)methyl)piperidin-4-yl)-2,3-dihydrobenzofuran-7-carboxamide] yielded an EC50 of 1.7 nM.
Compound `COc1cc(N)c(Cl)cc1C(=O)N[C@@H]1CCN(CCCCCC(=O)N(C)CCCCCCCC(=O)NC[C@H](O)[C@@H](O)[C@H](O)[C@H](O)CO)C[C@@H]1OC` [Example 16, 4-amino-5-chloro-2-methoxy-N-((3S,4R)-3-methoxy-1-(6-(methyl(8-oxo-8-(((2S,3R,4R,5R)-2,3,4,5,6-pentahydroxyhexyl)amino)octyl)amino)-6-oxohexyl)piperidin-4-yl)benzamide] registered an EC50 of 43.3 nM.
With `COc1cc(N)c(Cl)cc1C(=O)N[C@@H]1CCN(CCCCCC(=O)N[C@@H]2CCCN(CCCCCCCC(=O)NC[C@H](O)[C@@H](O)[C@H](O)[C@H](O)CO)C2)C[C@@H]1OC` [Example 12, 4-amino-5-chloro-2-methoxy-N-((3S,4R)-3-methoxy-1-(6-oxo-6-(((R)-1-(8-oxo-8-(((2S,3R,4R,5R)-2,3,4,5,6-pentahydroxyhexyl)amino)octyl)piperidin-3-yl)amino)hexyl)piperidin-4-yl)benzamide], a half-maximal response (EC50) required 14.6 nM.
As for `Nc1c(Cl)cc(C(=O)NC2CCN(CCCCCC(=O)NC3CCN(CCCCCCCC(=O)NC[C@H](O)[C@@H](O)[C@H](O)[C@H](O)CO)CC3)CC2)c2c1CCO2` [Example 30, 4-amino-5-chloro-N-(1-(6-oxo-6-((1-(8-oxo-8-(((2S,3R,4R,5R)-2,3,4,5,6-pentahydroxyhexyl)amino)octyl)piperidin-4-yl)amino)hexyl)piperidin-4-yl)-2,3-dihydrobenzofuran-7-carboxamide], it took 3.7 nM to reach a half-maximal effect (EC50).
In turn, `Nc1c(Cl)cc(C(=O)NCC2CCN(CC3CCN(CCCCCCCCC(=O)NC[C@H](O)[C@@H](O)[C@H](O)[C@H](O)CO)CC3)CC2)c2c1CCO2` [Example 35, 4-amino-5-chloro-N-((1-((1-(9-oxo-9-(((2S,3R,4R,5R)-2,3,4,5,6-pentahydroxyhexyl)amino)nonyl)piperidin-4-yl)methyl)piperidin-4-yl)methyl)-2,3-dihydrobenzofuran-7-carboxamide] registered an EC50 of 2.6 nM.
As to `Nc1c(Cl)cc(C(=O)NCC2CCN(CC3CCN(C(=O)CCCCCCC(=O)NC[C@H](O)[C@@H](O)[C@H](O)[C@H](O)CO)CC3)CC2)c2c1CCO2` [Example 40, 4-amino-5-chloro-N-((1-((1-(8-oxo-8-(((2S,3R,4R,5R)-2,3,4,5,6-pentahydroxyhexyl)amino)octanoyl)piperidin-4-yl)methyl)piperidin-4-yl)methyl)-2,3-dihydrobenzofuran-7-carboxamide], the EC50 came to 2 nM.
The compound `COc1cc(N)c(Cl)cc1C(=O)N[C@@H]1CCN(CCCCCC(=O)NCCCCCCCC(=O)NCCP(=O)(O)O)C[C@@H]1OC` [Example 25, (2-(8-(6-((3S,4R)-4-(4-amino-5-chloro-2-methoxybenzamido)-3-methoxypiperidin-1-yl)hexanamido)octanamido)ethyl)phosphonic acid] registered an EC50 of 115 nM.
With `COc1cc(N)c(Cl)cc1C(=O)N[C@@H]1CCN(C(C)CCCCC(=O)NCCCCCCCC(=O)NC[C@H](O)[C@@H](O)[C@H](O)[C@H](O)CO)C[C@@H]1OC` (stereo partly drawn) [Example 18, 4-amino-5-chloro-2-methoxy-N-((3S,4R)-3-methoxy-1-(7-oxo-7-((8-oxo-8-(((2S,3R,4R,5R)-2,3,4,5,6-pentahydroxyhexyl)amino)octyl)amino)heptan-2-yl)piperidin-4-yl)benzamide] the figure was 150 nM; with `COc1cc(N)c(Cl)cc1C(=O)N[C@@H]1CCN(CCCCCC(=O)NCCCC(=O)NC[C@H](O)[C@@H](O)[C@H](O)[C@H](O)CO)C[C@@H]1OC` [Example 4, 4-amino-5-chloro-2-methoxy-N-((3S,4R)-3-methoxy-1-(6-oxo-6-((4-oxo-4-(((2S,3R,4R,5R)-2,3,4,5,6-pentahydroxyhexyl)amino)butyl)amino)hexyl)piperidin-4-yl)benzamide], 28.6 nM; with `COc1cc(N)c(Cl)cc1C(=O)N[C@@H]1CCN(CCCC(C)CC(=O)NCCCCCCCC(=O)NC[C@H](O)[C@@H](O)[C@H](O)[C@H](O)CO)C[C@@H]1OC` (stereo partly drawn) [Example 21, 4-amino-5-chloro-2-methoxy-N-((3S,4R)-3-methoxy-1-(4-methyl-6-oxo-6-((8-oxo-8-(((2S,3R,4R,5R)-2,3,4,5,6-pentahydroxyhexyl)amino)octyl)amino)hexyl)piperidin-4-yl)benzamide], 27.6 nM.

As usually defined, the EC50 is the concentration needed to bring the measured effect to its halfway point. A higher EC50 goes with a less potent agent.
